Patent publication US8735620B2, “Processes for preparing (E)-styrylbenzylsulfone compounds and uses thereof for treating proliferative disorders” (priority 2008, dated 2014)
Read-outs that look alike come from different tables or passages of the source.

Legend:
[1] = tested on: BT20 human breast carcinoma xenograft; experiment: Nude mouse xenograft assay
Description: Female athymic (NCr-nu/nu) mice were injected subcutaneously with 0.5-1×10^7 ER-negative human breast tumor cells (BT-20) in 0.2 mL of PBS and the tumors allowed to grow to a size of 100-150 mm^3 in size in about 14 days. The mice were then paired such that the pairs harbored equal sized tumors, which were then used to test the therapeutic effects of 6s and 6ab. A Of the pairs, the animals were treated with either 50 mg/kg 6s following a Q4D schedule or 25 mg/kg using a Q2D schedule or vehicle (DMSO) control. The tumor size was then measured on alternate days in two dimensions and the volume determined using either of the following equations: 1: V=(L×(S^2))π/6); where L is the longer and S is the shorter of the two measurements. B. 6ab was dissolved in PBS and was administered intravenously (50 mg/kg) through the tail vein on every alternate day. Tumor measurements were done as in materials and methods.
Female athymic (NCR-nu/nu, Taconic) nude mice were injected with 0.5-1.0×10^7 BT20 cells subcutaneously in the hind leg using a 1 mL tuberculin syringe equipped with a 271/2 gauge needle. Approximately 14 days later, mice were paired (N=8) and injected with 6ab or Phosphate buffered saline as the vehicle control. The intravenous injections were performed in the mouse tail vein using a 1 mL tuberculin syringe equipped with a 30 gauge needle. The animals were injected following a Q2D×3 schedule. Tumor measurements (two dimensions) were done three times per week using traceable digital vernier calipers (Fisher).

[2] = tested on: H157 (human lung tumor cell line); experiment: Cytotoxicity assay (trypan blue exclusion, 96 h), H157; format: cell-based; settings: H157, 96 h treatment; read-out: H157 IC50
Description: (§2) Tissue Culture and Reagents: Paclitaxel was purchased from Sigma. Cell lines were purchased from ATCC. Cell lines were routinely grown in DMEM or RPM1 (CellGro) supplemented with 10% fetal bovine serum (Atlas) and 1 unit/mL penicillin-streptomycin (Gibco).

[3] = tested on: mantle cell lymphoma cell lines; settings: Park et al Oncogene 2007; cited from earlier work
[4] = tested on: DU145; experiment: Soft agar colony formation, DU145; format: cell-based, human; settings: DU145, dose dependent
[5] = tested on: DLD1 (human colorectal tumor cell line); experiment: Cytotoxicity assay (trypan blue exclusion, 96 h), DLD1; format: cell-based; settings: DLD1, 96 h treatment; read-out: DLD1 IC50
Description: as §2

[6] = tested on: BT20 (human breast tumor cell line); experiment: Cytotoxicity assay (trypan blue exclusion, 96 h), BT20; format: cell-based; settings: BT20, 96 h treatment
Description: as §2

[7] = Water solubility
[8] = tested on: BT20, DU145, H157 and DLD1 cell lines; experiment: In vitro cytotoxicity, four human tumor cell lines (SAR discussion); format: cell-based; settings: for activity in cell-killing assays: at the highest concentration (20 μM) tested
Description: A number of tumor cell lines were tested using a dose response end point assay system. The cells were grown in either DMEM or RPMI supplemented with 10% fetal bovine serum and 1 unit/mL Penicillin-Streptomycin solution. The tumor cells were plated into 6 well dishes at a cell density of 1.0×10^5 cells/mL/well and compounds were added 24 h later at various concentrations. Cell counts were determined from duplicate wells after 96 h of treatment. The total number of viable cells was determined by trypan blue exclusion.
Following the synthesis of this group of compounds, their in vitro cytotoxicity was assessed using four different human tumor cell lines derived from human breast (BT20), prostate (DU145), lung (H157) and colorectal (DLD1) cancers. […] In a majority of the compounds described here, a methoxy group was kept constant at the 4th position on the aromatic ring of the benzyl moiety.

[9] = tested on: BT20; experiment: Soft agar colony formation, BT20; format: cell-based, human; settings: BT20, dose dependent
[10] = tested on: MIA-PaCa-2 cells; experiment: Soft agar colony formation, MIA-PaCa-2; format: cell-based, human
Description: (§1) FIG. 1 Anti-tumor effects of (E)-2,4,6-Trimethoxystyryl-3-Hydroxy-4-Methoxybenzyl Sulfone (6aa). A. 6aa inhibits the growth of parental (MES-SA) and Paclitaxel resistant (MES-SA/DX5) cell lines with equal efficiency. The parental uterine sarcoma cells and the MDR positive (MES-SA/DX5) cells were plated into 6 well dishes and treated with various concentrations of 6aa and Paclitaxel for 96 h. The number of viable cells from duplicate plates was determined by trypan blue exclusion. B. Soft Agar Assays. MIA-PaCa-2 cells (1.0×10^5) were plated in soft agar containing various concentrations of each compound in triplicates. After three weeks of growth, the plates were stained for 48 h using 0.05% nitroblue tetrazolium solution. Representative plates were photographed using an Olympus stereoscope mounted with a Sony digital camera system (DKC5000, Sony Inc).
The soft agar plates were prepared as described by Cosenza, et al (Cosenza, S. C. et al. In Cell Growth, Differentiation and Senescence, Studzinski, G. P., Ed.; Oxford University Press: 1999, 161-176.). Briefly, Noble bottom agar (0.8%) was plated onto 60 mm tissue culture plates. Exponentially growing MIA-PaCa-2 cells (1.0×10^5) were mixed with growth medium with various concentrations of each compound and mixed with Noble agar to a final concentration of 0.4%. Each concentration was plated in triplicate. The top agar was allowed to solidify and the plates were then incubated at 5% CO2 at 37° C. for 3 weeks. The plates were then stained with 0.05% nitroblue tetrazolium (NBT) solution and representative plates were photographed using an Olympus stereoscope mounted with a Sony digital camera system (DKC5000, Sony Inc).

[11] = Acute and repeat toxicity studies in rats; format: in vivo; settings: intravenous
Description: Single dose and repeat-dose (28 daily injections) toxicology studies were carried out with one water-soluble form of this series (6ab) to assess the safety of intravenously administered drug in rats.

[12] = tested on: DU145 (human prostate tumor cell line); experiment: Cytotoxicity assay (trypan blue exclusion, 96 h), DU145; format: cell-based; settings: DU145, 96 h treatment; read-out: DU145 IC50
Description: as §2

[13] = Single dose and repeat-dose toxicology studies in mice; format: in vivo
[14] = tested on: MES-SA; experiment: Tumor cell killing, MES-SA (parental uterine sarcoma); format: cell-based, human; settings: Homo sapiens; parental cell line MES-SA, 96 h dose response; read-out: IC50
Description: as §1, with “A.” for “FIG. 1 Anti-tumor effects of (E)-2,4,6-Trimethoxystyryl-3-Hydroxy-4-Methoxybenzyl Sulfone (6aa). A.”, “Inc). Tissue Culture and Reagents: […] Cell lines were purchased from ATCC. Cell lines were routinely grown in DMEM or RPM1 (CellGro) supplemented with 10% fetal bovine serum (Atlas) and 1 unit/mL penicillin-streptomycin (Gibco). A number of tumor cell lines were tested using a dose response end point assay system. The cells were grown in either DMEM or RPMI supplemented with 10% fetal bovine serum and 1 unit/mL Penicillin-Streptomycin solution. […] Cell counts were determined from duplicate wells after 96 h of treatment. The total number of viable cells was determined by trypan blue exclusion.” for “Inc).”

[15] = tested on: MES-SA/DX5; experiment: Tumor cell killing, MES-SA/DX5 (multidrug resistant subline); format: cell-based, human
Description: as §1, with “A.” for “FIG. 1 Anti-tumor effects of (E)-2,4,6-Trimethoxystyryl-3-Hydroxy-4-Methoxybenzyl Sulfone (6aa). A.”, “Inc). Tissue Culture and Reagents: […] Cell lines were purchased from ATCC. Cell lines were routinely grown in DMEM or RPM1 (CellGro) supplemented with 10% fetal bovine serum (Atlas) and 1 unit/mL penicillin-streptomycin (Gibco). A number of tumor cell lines were tested using a dose response end point assay system. The cells were grown in either DMEM or RPMI supplemented with 10% fetal bovine serum and 1 unit/mL Penicillin-Streptomycin solution. […] Cell counts were determined from duplicate wells after 96 h of treatment. The total number of viable cells was determined by trypan blue exclusion.” for “Inc).”

[16] = single dose and repeat-dose (28 daily injections)

Molecule	IC50 [2]	IC50 [5]	IC50 [6]	IC50 [12]	other results
(E)-2,4,6-Trimethoxystyryl-3^1-O-phosphate disodium-4-methoxybenzyl Sulfone [6ab]	0.007 µM	0.007 µM	0.005 µM	0.0025 µM	tumor growth in xenograft model ([1]; 50 mg/kg IV tail vein, alternate days, 21 days): readily inhibited tumor growth; tumor volume response of the majority of the mice ([1]; 8 mice per group): growth arrest or a gradual reduction in their tumor volume; animal deaths ([1]; IV, Q2D×3 schedule): nor were there any animal deaths; body weight loss ([1]; IV, Q2D×3 schedule): Body weight loss of more than 10% was not observed; effect on mantle cell lymphoma cell lines [3]: altered the growth and cell cycle status; growth of tumor cells in soft agar [4]: complete inhibition of the growth of tumor cells; water solubility [7]: highly water-soluble; cytotoxic activity, SAR statement ([8]; four human tumor cell lines): did not alter the potency; growth of tumor cells in soft agar [9]: complete inhibition of the growth of tumor cells; growth of tumor cells in soft agar ([10]; MIA-PaCa-2, dose dependent, three weeks): complete inhibition of the growth of tumor cells; drug levels in circulation [11]: High dose dependent drug levels were sustained in circulation; hematotoxicity, liver damage, neurotoxicity [11, 16]: did not cause hematotoxicity (no myleosuppression), liver damage or any detectable neurotoxicity; drug levels in circulation [13]: High, dose dependent, drug levels were sustained in circulation; hematotoxicity, liver damage, neurotoxicity [13, 16]: did not cause hematotoxicity (no myleosuppression), liver damage or detectable neurotoxicity
CC(=O)O[C@H]1C(=O)[C@@]2(C)[C@H]([C@H](OC(=O)c3ccccc3)[C@]3(O)C[C@H](OC(=O)[C@H](O)[C@@H](NC(=O)c4ccccc4)c4ccccc4)C(C)=C1C3(C)C)[C@]1(OC(C)=O)CO[C@@H]1C[C@@H]2O [Paclitaxel, reference compound]	–	–	–	–	IC50 [14]: 0.004 µM; IC50 ([15]; Homo sapiens, MDR positive subline MES-SA/DX5, 96 h dose response, read-out: IC50): 0.75 µM; fold resistance of MDR positive subline versus parental cell line ([15]; MES-SA/DX5 vs MES-SA): greater than 100 fold; potency in soft agar relative to 6aa and 6ab ([10]; positive control, FIG. 1b): slightly lower potency
COc1ccc(CS(=O)(=O)/C=C/c2ccc(Cl)cc2)cc1 [6c, (E)-4-Chlorostyryl-4-Methoxybenzyl sulfone]	3.5 µM	3 µM	2 µM	2.5 µM	cytotoxic activity, SAR statement [8]: gradually decreased the activity
COc1ccc(CS(=O)(=O)/C=C/c2cc(C)cc(C)c2)cc1 [6k, (E)-3,5-Dimethylstyryl-4-Methoxybenzyl sulfone]	> 20 µM	> 20 µM	> 20 µM	> 20 µM	cytotoxic activity, SAR statement [8]: low level of cytotoxicity
COc1ccc(CS(=O)(=O)/C=C/c2ccccc2OC)cc1 [6f, (E)-2-Methoxystyryl-4-Methoxybenzyl sulfone]	5 µM	7.5 µM	5 µM	3.5 µM	cytotoxic activity, SAR statement ([8]; four human tumor cell lines): partially recovered the lost activity
COc1ccc(CS(=O)(=O)/C=C/c2ccc(OC)c(OC)c2OC)cc1 [6r, (E)-2,3,4-Trimethoxystyryl-4-Methoxybenzyl sulfone]	> 20 µM	> 20 µM	> 20 µM	> 20 µM	activity in cell-killing assays [8]: totally inactive
COc1ccc(CS(=O)(=O)/C=C/c2cc(OC)c(OC)cc2OC)cc1 [6q, (E)-2,4,5-Trimethoxystyryl-4-Methoxybenzyl sulfone]	> 20 µM	> 20 µM	> 20 µM	> 20 µM	activity in cell-killing assays [8]: totally inactive
